Assay results published in the NIST ThermoML archive (doi:10.1021/je034053i).

Experiments:
[1] = 298.15 K; for surface tension liquid-gas: Drop volume; for mass density: 101.33 kPa, Liquid
[2] = refractive index (Na D-line) (dimensionless); conditions: 298.15 K; 101.33 kPa; Liquid; Standard Abbe refractometry
[3] = xn = mol fraction of the nth substance listed; conditions: 298.15 K, Drop volume
[4] = refractive index (Na D-line) (dimensionless); xn = mol fraction of the nth substance listed; conditions: 298.15 K, 101.3 kPa, Liquid, Standard Abbe refractometry

CCCCO [butan-1-ol]
Conditions	mass density [kg/m3]	refractive index	surface tension liquid-gas [mN/m]
[1]	805.76	–	24.02
[2]	–	1.3973	–

CCO [ethanol]
Conditions	mass density [kg/m3]	refractive index	surface tension liquid-gas [mN/m]
[1]	785.15	–	21.74
[2]	–	1.3593	–

CCCCCCCO [heptan-1-ol]
Conditions	mass density [kg/m3]	refractive index	surface tension liquid-gas [mN/m]
[1]	818.75	–	26.47
[2]	–	1.4224	–

CCCCCCCO [heptan-1-ol] + CCCCCCCC
Conditions	refractive index, [4]	surface tension liquid-gas, [3] [mN/m]
x2 = 0.0616	1.4205	–
x2 = 0.0995	1.4194	25.35
x2 = 0.1699	1.4174	24.68
x2 = 0.1767	1.417	24.63
x2 = 0.2957	1.4136	23.72
x2 = 0.3286	1.4126	23.52
x2 = 0.353	1.4119	23.37
x2 = 0.4567	1.4091	22.79
x2 = 0.4918	1.4081	22.65
x2 = 0.5587	1.4062	22.38
x2 = 0.5956	1.4051	22.24
x2 = 0.6564	1.4036	22.04
x2 = 0.6626	–	22.01
x2 = 0.6629	1.4034	–
x2 = 0.783	1.4002	21.68
x2 = 0.7981	1.3999	21.63
x2 = 0.8409	1.3988	21.53
x2 = 0.9111	1.3971	21.38
x2 = 0.958	–	21.28

CCCCCCO [hexan-1-ol]
Conditions	mass density [kg/m3]	refractive index	surface tension liquid-gas [mN/m]
[1]	815.15	–	25.73
[2]	–	1.4159	–

CCCCCCO [hexan-1-ol] + CCCCCCCC
Conditions	refractive index, [4]	surface tension liquid-gas, [3] [mN/m]
x2 = 0.0515	1.4147	25.19
x2 = 0.0944	1.4136	24.79
x2 = 0.16	1.4119	24.22
x2 = 0.1837	1.4113	24.03
x2 = 0.2785	1.4091	23.38
x2 = 0.3309	–	23.08
x2 = 0.3311	1.4079	–
x2 = 0.4619	1.4049	22.48
x2 = 0.4987	1.404	22.32
x2 = 0.5049	1.4039	22.3
x2 = 0.5984	1.402	22.02
x2 = 0.6717	1.4007	21.83
x2 = 0.7019	1.4	21.74
x2 = 0.7478	1.3992	21.65
x2 = 0.7794	1.3987	21.58
x2 = 0.8504	1.3974	21.45
x2 = 0.895	1.3966	21.38
x2 = 0.959	1.3956	21.25

CCCCCCCCO [octan-1-ol]
Conditions	mass density [kg/m3]	refractive index	surface tension liquid-gas [mN/m]
[1]	821.63	–	27.13
[2]	–	1.4274	–

CCCCCCCCO [octan-1-ol] + CCCCCCCC
Conditions	refractive index, [4]	surface tension liquid-gas, [3] [mN/m]
x2 = 0.0641	1.4257	26.39
x2 = 0.12	–	25.83
x2 = 0.1378	1.4231	25.59
x2 = 0.1501	–	25.5
x2 = 0.2923	1.418	24.29
x2 = 0.3168	1.4172	24.11
x2 = 0.3554	1.4159	23.84
x2 = 0.4526	1.4128	23.23
x2 = 0.495	1.4114	23
x2 = 0.5413	1.41	22.76
x2 = 0.6269	1.4072	22.38
x2 = 0.6566	1.4062	22.24
x2 = 0.6897	1.4051	22.12
x2 = 0.7547	1.403	21.88
x2 = 0.8114	1.4012	21.7
x2 = 0.8617	1.3995	21.55
x2 = 0.8832	1.3989	21.51
x2 = 0.9635	1.3961	–

CCCCCCCC [octane]
Conditions	mass density [kg/m3]	refractive index	surface tension liquid-gas [mN/m]
[1]	698.5	–	21.17
[2]	–	1.3951	–

CCCCCCCC [octane] + CCCCO
Conditions	refractive index, [4]	surface tension liquid-gas, [3] [mN/m]
x1 = 0.0453	1.397	23.65
x1 = 0.113	1.3966	23.15
x1 = 0.1636	1.3964	22.84
x1 = 0.1788	1.3963	22.74
x1 = 0.2956	1.3957	22.2
x1 = 0.3281	–	22.08
x1 = 0.3526	1.3955	21.99
x1 = 0.4467	1.3952	21.73
x1 = 0.4857	1.3951	21.65
x1 = 0.5747	1.3949	21.49
x1 = 0.5886	–	21.49
x1 = 0.6326	1.3948	21.42
x1 = 0.6918	1.3948	21.36
x1 = 0.777	1.3948	21.29
x1 = 0.8167	1.3948	21.28
x1 = 0.865	1.3948	21.24
x1 = 0.9376	1.3949	21.21
